Assay [1] deals with HT-29. In words: Cytotoxicity against Homo sapiens (human) HT-29 cells. Type of assay: functional, cell-based.
Assay [2] relates to Spodoptera littoralis. In words: Antifeedant activity against Spodoptera littoralis. Type of assay: functional, organism-based.
The subject of assay [3] is Pseudomonas aeruginosa. The experiment in a line: Antibacterial activity against Pseudomonas aeruginosa after 24 hr. Type of assay: functional.
The subject of assay [4] is Saccharomyces cerevisiae. The experiment in a line: Antifungal activity against Saccharomyces cerevisiae S3 after 48 hr. The assay is classed as functional. Particulars: S3, 48 h.
The subject of assay [5] is Salmonella typhimurium. In words: Antibacterial activity against Salmonella enterica subsp. enterica serovar Typhimurium after 24 hr. The assay is classed as functional.
For assay [6], the system named is Cryptococcus neoformans. In words: Antifungal activity against Cryptococcus neoformans CECT 1075 after 48 hr. The assay is classed as functional. Particulars: CECT 1075, 48 h.
The subject of assay [7] is Bacillus subtilis. The experiment in a line: Antibacterial activity against Bacillus subtilis CECT 397 after 24 hr. Particulars: CECT 397, 24 h. The assay is classed as functional.
For assay [8], the system named is Enterococcus faecalis. In words: Antibacterial activity against Enterococcus faecalis OGIX after 24 hr. The assay is classed as functional.
For assay [9], the system named is Spodoptera littoralis. In words: Antifeedant activity against Spodoptera littoralis at 100 ppm. The assay is classed as functional.
The test system of assay [10] is Spodoptera littoralis. The experiment in a line: Antifeedant activity against Spodoptera littoralis at 10 ppm. Type of assay: functional.
Assay [11] concerns P388. The experiment in a line: Cytotoxicity against […] cells. Type of assay: functional, cell-based. Particulars: Mus musculus.
Assay [12] concerns A549. In words: Cytotoxicity against Homo sapiens (human) A549 cells. Type of assay: functional, cell-based.
Assay [13] has as its system Candida albicans. The experiment in a line: Antifungal activity against Candida albicans CECT 1394 after 48 hr. Type of assay: functional. Particulars: CECT 1394, 48 h.
Assay [14] deals with SK-MEL-28. The experiment in a line: Cytotoxicity against Homo sapiens (human) SK-MEL-28 cells. Type of assay: functional, cell-based.
In assay [15] the test system is Staphylococcus aureus. In words: Antibacterial activity against Staphylococcus aureus ATCC 8 after 24 hr. The assay is classed as functional. Particulars: ATCC 8, 24 h.
The subject of assay [16] is Proteus. In words: Antibacterial activity against Proteus after 24 hr. Type of assay: functional.

Converted amounts (≈) assume the structure as drawn.

With `C=C1C(=O)C[C@H]2C(C)(C)CCC[C@]2(C)[C@H]1CC=O`, the IC50 (in general, the concentration at which inhibition is half-maximal) in [1] was 2.5 µg/mL (≈ 10.1 µM); in assay [11], 1.2 µg/mL (≈ 4.83 µM); in assay [12] it was 1.2 µg/mL (≈ 4.83 µM); in [14], 2.5 µg/mL (≈ 10.1 µM). Moreover, in [2], the Activity result is “Dose-dependent effect”. In addition, the MIC (commonly the lowest concentration found to suppress growth) is 100 µg/mL (≈ 403 µM) in assay [3]; more than 100 µg/mL in assay [4]; more than 100 µg/mL in assay [5]; more than 100 µg/mL in assay [6]; more than 100 µg/mL in assay [7]; more than 100 µg/mL in [8]. Moreover, the MIC in [13], in assay [15] and in assay [16] was more than 100 µg/mL in each case. Also, the values for the AFI in [9] and in assay [10] were 43.7% and -10%, respectively.

Turning to `CC1(C)CCC[C@]2(C)[C@@H](C=O)C(C=O)=CC[C@@H]12` [POLYGODIAL], the MIC in assay [3] was more than 100 µg/mL; in assay [4] it was 100 µg/mL (≈ 427 µM); in assay [5] it was more than 100 µg/mL; in [6], more than 100 µg/mL; in assay [7] it was more than 100 µg/mL; in assay [8], more than 100 µg/mL. The MIC in assay [13], in assay [15] and in assay [16] was more than 100 µg/mL each time. The values for the AFI in assay [9] and in assay [10] were 7.4% and 24.9%, respectively. In assay [14], this molecule returned an IC50 of 2.5 µg/mL (≈ 10.7 µM).

Consider `C=C1C(=O)C[C@H]2C(C)(C)CCC[C@]2(C)[C@H]1C=O`, for which the AFI turned out to be 18.5% in assay [9] and 40.2% in assay [10].

On to `CC1(C)CCC[C@]2(C)[C@@H](CC=O)C(C=O)=CC[C@@H]12`, for which the IC50 in assay [1] was 5 µg/mL (≈ 20.1 µM); in [11] it was 2.5 µg/mL (≈ 10.1 µM); in assay [12] it was 2.5 µg/mL (≈ 10.1 µM); in assay [14], 5 µg/mL (≈ 20.1 µM). For the same molecule, the Activity result in [2] was “Dose-dependent effect”. The MIC in assay [3] is 100 µg/mL (≈ 403 µM); in assay [4] it was 100 µg/mL (≈ 403 µM); in assay [5] it was more than 100 µg/mL; in [6], more than 100 µg/mL; in [7], 100 µg/mL (≈ 403 µM); in assay [8], more than 100 µg/mL. The results for the MIC in assay [13], in [15] and in assay [16] were more than 100 µg/mL, 100 µg/mL (≈ 403 µM) and more than 100 µg/mL, respectively. Also, the AFI is recorded as 51.7% in [9] and -17.9% in [10].
